Assay results taken from patent EP4458804A1, “METHOD FOR PRODUCING AN OBJECT, PHENALEN-1-ONE COMPOUND AND USE THEREOF” (TriOptoTec GmbH, priority 2023, dated 2024).

Tests used:
[1] = Two-component system (kit of parts): impregnation of TPU films, visual colouring and resistance to rubbing/washing (Beispiel 6a/6b); assay type: physicochemical; settings: TPU Folien; 2K-System Beispiel 6a (Aceton/Isopropanol)
Source text: Um eine Mehrkomponenten-System bereitzustellen, bei dem vorzugsweise flüchtigere Hilfskomponenten, die gegebenenfalls regelmäßiger im Prozess ergänzt werden müssen, in einer separaten Komponente bereitgestellt werden können, wurde zunächst folgendes 2K-System getestet.
Grundkomponente (A): Eine Mischung aus 40,0% w/w Aceton, 30,0% w/w Isopropanol und […] w/w Wasser wurden homogen vermengt. Die Mischung war dicht verschlossen > 12 Monate bei Raumtemperatur lagerbar.
Zusatzkomponente (B): Eine Mischung aus 3,0% w/w Phenoxyethanol, 3,0% w/w EDTA und 0,1 bis 2,0 % Photokatalysator in Wasser wurden homogen verrührt. Die Mischung war dicht verschlossen in dunklen Flaschen > 6 Monate bei Raumtemperatur lagerbar.
Beide Lösungen wurden vor dem Prozess zu gleichen Teilen gemischt, gefolgt von einer 1:5 Verdünnung mit Wasser. Nach guter Durchmischung war die Lösung gebrauchsfertig.
Bei F-64a und F-73 war eine schwache Gelb- bzw.
Grundkomponente (A) enthielt eine Mischung aus 30,0% w/w Dimethylsuccinat, 33,0% w/w 1,2-Propandiol, 12,0% w/w Tween 20 und 25,0 % Wasser.
Zusatzkomponente (B) enthielt eine Mischung aus 2,0 Gew.-% Phenoxyethanol, 2,0 Gew.-% EDTA und 0,1 Gew.-% bis 1,6 Gew.-% Photokatalysator, jeweils bezogen auf das Gesamtgewicht der Zusatzkomponente (B), wobei die entsprechenden Bestandteile in Wasser gelöst wurden und anschließend homogen verrührt wurden.
Die Komponenten wurden vor Gebrauch im Verhältnis A zu B 2:1 gemischt, gefolgt von einer 1:1 Verdünnung mit Wasser. Nach guter Durchmischung war die Lösung gebrauchsfertig.

Acinetobacter pitii = experiment: Antibacterial activity of impregnated films, modified ISO 22196 with illumination (Beispiel 12); assay type: cell-based; settings: TPU Folie, Rezeptur 1, 1 mM F-24b; Licht 20mW/cm2 für 10min; Gram-negativ
Source text: (§1) Die Bestimmung der antimikrobiellen Aktivität erfolgte nach einer modifizierten Version der ISO 22196:2011-08 ("Messung von antibakterieller Aktivität auf Kunststoff- und anderen porenfreien Oberflächen", Ausgabedatum: 2011-08).
(§2) Bei der Testdurchführung wurde ein dünner Flüssigkeitsfilm, in dem die Bakterien enthalten sind (1,25 x 10^4 /cm^2), direkt auf die Probenkörper (3 x 3 cm) aufgebracht. Direkt nach Beimpfung wurden von der Nullprobe die Bakterien von den Probenkörperoberflächen mittels Ultraschall und Vortexen abgelöst und die Keimzahl (KBE (engl. CFU), Kolonie-bildende Einheit) bestimmt (t0-Wert).
(§3) Nach 4h wurden überlebende Bakterien von den Probenkörperoberflächen mittels Ultraschall und Vortexen abgelöst und die Keimzahl bestimmt (t4-Wert).
(§4) Im Unterschied zu der in der ISO 22196:2011-08 beschreibenen Methode wurde das Inokulum nicht mit einer Folie abgedeckt und die Inkubationszeit wurde von 24 auf 4 Stunden reduziert. Weiterhin wurden die Probenkörper der Proben 3 und 4 mit Licht der Intensität 20mW/cm2 für 10min belichtet, um eine biozide Wirkung nach Bestrahlung mit elektromagnetischer Strahlung zu bestimmen.
(§5) Verwendet wurden TPU Folienstücke, die nach dem in Beispiel 4 beschriebenen Verfahren mit Rezeptur 1 behandelt wurden. Rezeptur 1 wurde hergestellt nach Beispiel 2. […] Der Test wurde in Anlehnung an ISO 22196 nach oben beschriebener Methode durchgeführt.

E.coli 10536 = experiment: as above; assay type: cell-based; settings: TPU Folie, Rezeptur 1, 1 mM F-24b; Licht 20mW/cm2 für 10min; Gram-negativ
Source text: as §1, §2, §3, §4, §5

S.enterica = experiment: as above; assay type: cell-based; settings: TPU Folie, Rezeptur 1, 1 mM F-24b; Licht 20mW/cm2 für 10min; Gram-negativ
Source text: as §1, §2, §3, §4, §5

S. aureus [2] = experiment: Bactericidal effect after leaching/washing stress B and C (Beispiel 18), modified ISO 22196; assay type: cell-based; settings: TPU film, Rezeptur 1, 1 mM
Source text: as §1, §2, §3, §4
Um die Haltbarkeit des Photokatalysators innerhalb der Folie bzw. dessen Auswaschen gegen gängige Reinigungsmittel zu untersuchen, wurden damit Immersionstest in Wasser und 70% Isopropanol durchgeführt.
Die Folien wurden anschließend mit dem unter B) und C) beschrieben Belastungsverfahren mit den in den Tabellen gezeigten Medien behandelt und in ihrer Wirksamkeit vor/nach Belastung verglichen.

[3] = Leaching stress test B following DIN EN 16105, nine immersion cycles (Beispiel 10 B); assay type: physicochemical; settings: Immersion test B (DIN EN 16105), medium Wasser, plastic TPU, Rezeptur 1 nach Beispiel 1
Experimental: Der Test wurde in Anlehnung an die DIN EN 16105:2011-12 ("[…] zur Bestimmung der Freisetzung von Substanzen aus Beschichtungen in intermittierendem […] unter A) beschrieben erzeugt. Es wurde vollentsalztes Wasser mit einem pH-Wert von (6 ± 1) und einer Wassertemperatur von (22 ± 3) °C verwendet. Beim Test wurden jeweils neun Tauchzyklen durchgeführt. […] Die erforderliche Wassermenge (z. B. 250 mL pro 100 cm2) musste hinzugefügt werden. Für jedes Eintauchen wurde frisches deionisiertes Wasser verwendet. Jeder Probekörper wurde in […]. Die […] so […] von Wasser mit der untersuchten Oberfläche möglich war. Der Tauchbehälter wurde dabei abgedeckt, um ein Verdunsten von Wasser während des Eintauchens zu […]. Der Überschuss wird direkt im UV-VIS-Spektrometer vermessen, vor dem ersten Immersionszyklus und nach Zyklen 1, 3, 5, 7 und 9. Die Ausgangswerte (Absorptionsmaximum des jeweiligen […] dabei zwischen 0,05 A.U. und 1,00 A.U. liegen. Die […] Immersionstest B

[4] = Washability test C following DIN EN ISO 11998, 200 sponge cycles with disinfectant solution (Beispiel 10 C); assay type: physicochemical; settings: TPU, Rezeptur 1 nach Beispiel 2
Experimental: Der Test wurde in Anlehnung an die DIN EN ISO 11998:2006-10 ("Beschichtungsstoffe - Bestimmung der Nassabriebbeständigkeit und der Reinigungsfähigkeit von Beschichtungen (ISO 11998:2006)"; Ausgabedatum: 2006-10) durchgeführt, um das Auswaschen der verschiedenen Farbstoffe in den Kunststofffolien nach mechanischer Belastung zu beurteilen.
Hierzu wurden 200 Zyklen mit einem Anpressdruck von 135g angewendet. Es wurde ein Schwamm mit 4,0 mL Probelösung vorbereitet, die zu testende Folie eingespannt und der Schwamm aufgebracht. 200 Zyklen entsprachen dabei circa 5 min Kontaktzeit des Schwamms und der Oberfläche. Nach dem Test wurde die Folie entnommen und im UV-VIS Spektrometer vermessen, um die ausgewaschene Menge an Farbstoff zu bestimmen.
Der jeweils gemessene Wert vor dem Test und nach Abschluss der 200 Zyklen wurde verglichen und daraus ein prozentualer Verlust ermittelt.
Vorbereitet wurde die Folie nach Beispiel 2. Die zu verwendete Probelösung entsprach 5 Gew.-% Incidin Plus Lösung, bezogen auf das Gesamtgewicht der Probelösung.
Incidin Pro, der Firma ECOLAB Deutschland GmbH (Monheim), ist ein flüssiges Konzentrat, das sich zur Reinigung und Desinfektion medizinischer Geräte und Flächen in Einrichtungen des Gesundheitswesens angewendet wird.
Der Test ermittelt somit den nach wiederholtem flächigem Abwischen mit einem Desinfektionsmittel aus einer behandelten Oberfläche ausgetragenen Photokatalysator.

S. aureus [5] = experiment: Bactericidal effect after tempering (Beispiel 19), modified ISO 22196; assay type: cell-based; settings: TPU film, Rezeptur 1, 1 mM
Source text: as §1, §2, §3, §4
Weiterhin wurde die Belastbarkeit des Photokatalysators in der Folie mit zusätzlichen Tests wie Tempern bei 80°C und Dampfsterilisation bei 121°C untersucht. […]

In the case of `CC(C)(O)c1cc[n+](CC2=Cc3cccc4cccc(c34)C2=O)cc1` [F-24b], the “Imprägnierung / Färbung der Folie” value [1] is reported as “mit den vorherigen Daten vergleichbar”, the “Log10 Reduktion Hauptprobe” value (Acinetobacter pitii) is reported as 3,0 ± 0,7 log10 and the “Log10 Reduktion Hauptprobe” value (E.coli 10536) is reported as 4,8 ± 0,4 log10. For the same compound, the “Log10 Reduktion Hauptprobe” value (S.enterica) was 4,2 ± 0,6 log10, the “Log10 Reduktion Hauptprobe” value (S. aureus [2]; After Auswaschen nach DIN EN 16105, procedure B), Wasser (dest.)) was 1,9 ± 0,5 log10 and the “Log10 Reduktion Hauptprobe” value (S. aureus [2]; After Screening Test - Immersion, procedure A), 70% Isopropanol) was 1,9 ± 0,6 log10. The “Log10 Reduktion Hauptprobe” value (S. aureus [2]; After Screening Test - Immersion, procedure A), Wasser (dest.)) was 3,3 ± 0,7 log10, the “Log10 Reduktion Hauptprobe” value (S. aureus [2]; After Washability nach DIN EN ISO 11998, procedure C), cleaner Neutraldesinfizierend) was 4,5 ± 0,6 log10 and the “Log10 Reduktion Hauptprobe” value (S. aureus [2]; After Washability nach DIN EN ISO 11998, procedure C), cleaner Sauer-oxidierend) was 4,8 ± 0,3 log10. The “Abs. nach Auswaschen” value [3] was 0,006, the “Berechneter Verlust in %” value [3] was 4,9% and the “Abs. vor Auswaschen” value ([4]; Washability test C (DIN EN ISO 11998), film before test) was 0,121. For the same compound, the “Berechneter Verlust in %” value ([4]; Washability test C, 200 sponge cycles, 5 Gew.-% Incidin Plus Lösung) was 1,7%, the “Abs. nach Auswaschen” value ([4]; Washability test C, film after 200 sponge cycles, 135g, 5 Gew.-% Incidin Plus Lösung) was 0,119 and the “Log10 Reduktion Hauptprobe” value (S. aureus [5]; After 1 Woche 80°C Tempern) was 3,0 ± 1,1 log10. The “Log10 Reduktion Hauptprobe” value (S. aureus [5]; After 1 h 80 °C Tempern) was 4,1 ± 0,1 log10.
